# Test results published in patent US10610520B2, “Heterocyclic compound” (Takeda Pharmaceutical Company Limited, priority 2016, dated 2020).
# Target: T1, His-hMAGL (recombinant polyhistidine tagged human MAGL protein) (Homo sapiens, UniProt Q99685)
# T1 construct: made in house; host or cells: E. coli BL21(DE3)
# T1 sequence (Q99685 1-303): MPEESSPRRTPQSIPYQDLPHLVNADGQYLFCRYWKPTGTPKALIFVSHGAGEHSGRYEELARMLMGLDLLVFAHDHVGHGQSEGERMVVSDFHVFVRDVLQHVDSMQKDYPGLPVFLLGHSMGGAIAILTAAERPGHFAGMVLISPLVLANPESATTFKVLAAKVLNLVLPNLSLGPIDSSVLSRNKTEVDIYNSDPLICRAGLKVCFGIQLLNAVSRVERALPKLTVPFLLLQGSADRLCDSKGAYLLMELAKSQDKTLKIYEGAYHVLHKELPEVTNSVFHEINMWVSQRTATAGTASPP
# Assay: Measurement of MAGL inhibitory activity (arachidonic acid production from 2-arachidonylglycerol, RapidFire-mass spectrometry)
# Assay type: biochemical
# Settings: MAGL inhibitory rate, test compound 10 μM, 60 min preincubation, 2-arachidonylglycerol substrate
# Protocol: The His-hMAGL obtained above was diluted with enzyme reaction buffer (10 mM Tris-HCl, pH 7.5, 1 mM EDTA, 0.025 (w/v) % Triton X-100, 0.01% Bovine serum albumin) to a concentration of 7.5 ng/mL. […] Thereafter, to each well was added 5 μL of 150 μM 2-arachidonylglycerol (Tocris Bioscience), and the mixture was incubated at room temperature for 10 min. Then, 10 μL of 2% formic acid (Wako Pure Chemical Industries, Ltd.) was added to stop the reaction. Furthermore, acetonitrile (50 μL) containing 3 μM arachidonic acid-d8 (Cayman Chemical Company) was added and the mixture was stirred.
# The amount of arachidonic acid in the obtained enzyme reaction mixture was calculated by measuring by RapidFire-mass spectrometry and correcting by the amount of arachidonic acid-d8. High Throughput online solid phase extraction was performed using RapidFire 300™ system (Agilent Technologies, Inc.). Samples were loaded on SPE C4 cartridge (Agilent Technologies, Inc.) and desalted with 0.2 (v/v) % acetic acid (Wako Pure Chemical Industries, Ltd.) in ultrapure water/acetonitrile (70/30, v/v) at a flow rate of 1.5 mL/min, eluted at a flow rate of 0.5 mL/min with 0.2 (v/v) % acetic acid dissolved in acetonitrile/ultrapure water (90/10, v/v), and injected into the mass spectrometry part. The injection needle was washed with ultrapure water (500 millisecond) and acetonitrile (500 millisecond) to minimize carry-over. […] The RapidFire300 system was controlled by RapidFire UI software version 3.6 (Agilent Technologies, Inc.).
# The mass spectrometry of the resultant product was performed using API4000™ triple quadrupole mass spectrometer (AB SCIEX) equipped with an electrospray ion sauce (TurboIon Spray™) in a negative selected reaction monitoring (SRM) mode. The conditions of SRM are shown below. The parameters of the instrument were optimized as follows: capillary temperature 600° C., ion spray voltage −4.5 kV, collision gas 8, curtain gas 15 psi, ion source gas 1 60 psi, ion source gas 2 60 psi. The mass spectrometer was controlled by Analyst™ software version 1.5.1 (AB SCIEX). The peak area integration was analyzed using RapidFire integrator software version 3.6 (Agilent Technologies, Inc.).
# MAGL inhibitory rate (%) was calculated according to the following calculation formula. (1-(arachidonic acid production amount of test compound addition group−arachidonic acid production amount of enzyme-free group)÷(arachidonic acid production amount of test compound-free group−arachidonic acid production amount of enzyme-free group))×100
row,SMILES,inhibition at 10 µM [%]
1,"O=C1CCC2(CN(C(=O)c3ccc(-c4ccc(C(F)(F)F)c(Cl)c4)cc3)C2)N1 [Example 44, 2-((3′-chloro-4′-(trifluoromethyl)biphenyl-4-yl)carbonyl)-2,5-diazaspiro[3.4]octan-6-one]",100
2,"O=C1CCC2(CN(C(=O)c3sc4cc(OC(F)(F)F)cc(F)c4c3Cl)C2)N1 [Example 251, 2-((3-chloro-4-fluoro-6-(trifluoromethoxy)-1-benzothiophen-2-yl)carbonyl)-2,5-diazaspiro[3.4]octan-6-one]",99
3,"O=C1CCC2(CN(C(=O)N3CCC(Cc4cc(C(F)(F)F)cc(C(F)(F)F)c4)CC3)C2)N1 [Example 108, 2-((4-(3,5-bis(trifluoromethyl)benzyl)piperidin-1-yl)carbonyl)-2,5-diazaspiro[3.4]octan-6-one]",104
4,"Cc1cc(-c2ccc3c(Cl)c(C(=O)N4CC5(CCC(=O)N5)C4)sc3c2)c(C)s1 [Example 233, 2-((3-chloro-6-(2,5-dimethyl-3-thienyl)-1-benzothiophen-2-yl)carbonyl)-2,5-diazaspiro[3.4]octan-6-one]",101
5,"O=C1CCC2(CN(C(=O)c3sc4cc(-c5ccc(C(F)(F)F)cc5)ccc4c3Cl)C2)N1 [Example 197, 2-((3-chloro-6-(4-(trifluoromethyl)phenyl)-1-benzothiophen-2-yl)carbonyl)-2,5-diazaspiro[3.4]octan-6-one]",90
6,"O=C1CCC2(CN(C(=O)N3CC(COc4ccc(C(F)(F)F)c(F)c4)C3)C2)N1 [Example 22, 2-((3-((3-fluoro-4-(trifluoromethyl)phenoxy)methyl)azetidin-1-yl)carbonyl)-2,5-diazaspiro[3.4]octan-6-one]",100
7,"Cc1sccc1-c1ccc2c(Cl)c(C(=O)N3CC4(CCC(=O)N4)C3)sc2c1 [Example 234, 2-((3-chloro-6-(2-methyl-3-thienyl)-1-benzothiophen-2-yl)carbonyl)-2,5-diazaspiro[3.4]octan-6-one]",101
8,"COc1cc(-c2ccccc2)ccc1C(=O)N1CC2(CCC(=O)N2)C1 [Example 43, 2-((3-methoxybiphenyl-4-yl)carbonyl)-2,5-diazaspiro[3,4]octan-6-one]",87
9,"O=C1CCC2(CCN(C(=O)N3CC(COc4ccc5c(c4)CCCC5)C3)C2)N1 (centres unmarked) [Example 320, 7-((3-((5,6,7,8-tetrahydronaphthalen-2-yloxy)methyl)azetidin-1-yl)carbonyl)-1,7-diazaspiro[4.4]nonan-2-one]",94
10,"O=C1CCC2(CN(C(=O)c3ccc(-c4ccc(C(F)(F)F)cc4F)cc3)C2)N1 [Example 46, 2-((2′-fluoro-4′-(trifluoromethyl)biphenyl-4-yl)carbonyl)-2,5-diazaspiro[3.4]octan-6-one]",96
11,"O=C1CCC2(CN(C(=O)c3ccc4nc(-c5ccc(F)cc5)oc4c3)C2)N1 [Example 13, 2-((2-(4-fluorophenyl)-1,3-benzoxazol-6-yl)carbonyl)-2,5-diazaspiro[3.4]octan-6-one]",89
12,"O=C1CCC2(CN(C(=O)N3CC(COc4ccc5c(c4)CCCC5)C3)C2)N1 [Example 18, 2-((3-((5,6,7,8-tetrahydronaphthalen-2-yloxy)methyl)azetidin-1-yl)carbonyl)-2,5-diazaspiro[3.4]octan-6-one]",100
13,"COc1cccc(-c2ccc3c(Cl)c(C(=O)N4CC5(CCC(=O)N5)C4)sc3c2)c1 [Example 194, 2-((3-chloro-6-(3-methoxyphenyl)-1-benzothiophen-2-yl)carbonyl)-2,5-diazaspiro[3.4]octan-6-one]",100
14,"CC(C)c1ccc(-c2ccc3c(Cl)c(C(=O)N4CC5(CCC(=O)N5)C4)sc3c2)cc1 [Example 187, 2-((3-chloro-6-(4-isopropylphenyl)-1-benzothiophen-2-yl)carbonyl)-2,5-diazaspiro[3.4]octan-6-one]",94
15,"O=C1CCC2(CN(C(=O)c3ccc(-c4ccc(Cl)cc4Cl)cc3)C2)N1 [Example 84, 2-((2′,4′-dichlorobiphenyl-4-yl)carbonyl)-2,5-diazaspiro[3.4]octan-6-one]",101

# Further lines, results first:
row,inhibition at 10 µM [%],SMILES
1,100,"O=C1NC2(CO1)CN(C(=O)c1sc3cc(C(F)(F)F)cc(OC(F)F)c3c1Cl)C2 [Example 305, 2-((3-chloro-4-(difluoromethoxy)-6-(trifluoromethyl)-1-benzothiophen-2-yl)carbonyl)-7-oxa-2,5-diazaspiro[3.4]octan-6-one]"
2,99,"O=C1CCC2(CN(C(=O)N3CCC(Cc4ccccc4Cl)CC3)C2)N1 [Example 101, 2-((4-(2-chlorobenzyl)piperidin-1-yl)carbonyl)-2,5-diazaspiro[3.4]octan-6-one]"
3,100,"Cc1c(OC(F)(F)F)ccc2c(Cl)c(C(=O)N3CCC4(COC(=O)N4)C3)sc12 (centres unmarked) [Example 329, 7-((3-chloro-7-methyl-6-(trifluoromethoxy)-1-benzothiophen-2-yl)carbonyl)-3-oxa-1,7-diazaspiro[4.4]nonan-2-one]"
4,100,"Cc1cc(CO[C@H]2C[C@@H](C(=O)N3CC4(COC(=O)N4)C3)C2)ccc1Cl [Example 357, 2-((cis-3-((4-chloro-3-methylbenzyl)oxy)cyclobutyl)carbonyl)-7-oxa-2,5-diazaspiro[3.4]octan-6-one]"
5,100,"O=C1NC2(CO1)CN(C(=O)N1CCC(COc3ccc(F)cc3Cl)CC1)C2 [Example 240, 2-((4-((2-chloro-4-fluorophenoxy)methyl)piperidin-1-yl)carbonyl)-7-oxa-2,5-diazaspiro[3.4]octan-6-one]"
6,94,"COc1ccc(-c2ccc(C(=O)N3CC4(CCC(=O)N4)C3)cc2)c(Cl)c1 [Example 85, 2-((2′-chloro-4′-methoxybiphenyl-4-yl)carbonyl)-2,5-diazaspiro[3.4]octan-6-one]"
7,100,"O=C1NC2(CCN(C(=O)c3sc4c(F)c(OC(F)(F)F)ccc4c3Cl)C2)CO1 (centres unmarked) [Example 338, 7-((3-chloro-7-fluoro-6-(trifluoromethoxy)-1-benzothiophen-2-yl)carbonyl)-3-oxa-1,7-diazaspiro[4.4]nonan-2-one]"
8,101,"O=C1NC2(CO1)CN(C(=O)c1sc3cc(C4=CCC(F)(F)CC4)cc(F)c3c1Cl)C2 [Example 309, 2-((3-chloro-6-(4,4-difluorocyclohex-1-en-1-yl)-4-fluoro-1-benzothiophen-2-yl)carbonyl)-7-oxa-2,5-diazaspiro[3.4]octan-6-one]"
9,100,"O=C1NC2(CO1)CN(C(=O)c1sc3ccc(C(F)(F)F)cc3c1C(F)F)C2 [Example 275, 2-((3-(difluoromethyl)-5-(trifluoromethyl)-1-benzothiophen-2-yl)carbonyl)-7-oxa-2,5-diazaspiro[3.4]octan-6-one]"
10,100,"O=C1CCC2(CN(C(=O)N3CCC(C(F)(F)c4ccc(Cl)cc4Cl)CC3)C2)N1 [Example 244, 2-((4-((2,4-dichlorophenyl)(difluoro)methyl)piperidin-1-yl)carbonyl)-2,5-diazaspiro[3.4]octan-6-one]"

# Same assay, conditions: MAGL inhibitory rate, test compound 10 μM, 60 min preincubation, 2-arachidonylglycerol substrate; 10 µM
row,% inhibition (10 μM) [%],SMILES
1,99,"O=C1NC2(CO1)CN(C(=O)[C@H]1C[C@@H](OCc3ccc(C(F)(F)F)cc3F)C1)C2 (stereo in doubt) [Example 355, 2-((cis-3-((2-fluoro-4-(trifluoromethyl)benzyl)oxy)cyclobutyl)carbonyl)-7-oxa-2,5-diazaspiro[3.4]octan-6-one]"
